Data set [1] in a line: Solubility as a function of pH at 20° C. In kind it is physicochemical. How it is done: After removing the undissolved compound (0.45 μm Millex LCR filter), the concentration in the solution was determined using UV spectrometry. The pH of the solution was measured.
For data set [2], the system named is novel object recognition in female hooded-Lister rats. Description: Object recognition test (NOR), sub-chronic PCP. In kind it is in vivo, rat. The settings on record: for effects of acute treatment in the NOR task: compound 1 0.3-1.0 mg/kg, PQ10 1.0 mg/kg, oral, 30 min prior to testing. How it is done:
60 female hooded-Lister rats (Charles River, UK) were used as subjects for these studies and weighed 248 g±20 g. Rats were allowed at least a 7-day acclimatization period to the animal unit prior to commencement of experimentation. Rats were housed in groups of 5 under standard laboratory conditions under a 12 h light:dark cycle, lights on at 0700 h. All testing was carried out in the light phase. Food and water were freely provided. All experiments were conducted in accordance with the Animals Scientific Procedures Act, U.K. 1986 and were approved by the University of Bradford ethical review panel.
40 mg of test compound was dissolved in 5 ml of 40% hydroxypropyl β-cyclodextrin (HPBC) solution. The solution was sonicated until completely dissolved. 2 ml of sterile water was added and the pH measured and adjusted with NaOH solution (0.1N) to obtain pH ˜4. Finally, sterile water was added to a final volume of 10 ml. This stock solution was then diluted in 20% HPBC to obtain the final concentrations.
100 mg of PQ10 was dissolved in a 40% HPBC solution and 8 mg of tartaric acid. The solution was sonicated until completely dissolved. 5 ml of sterile water was added and the pH measured and adjusted with NaOH solution (0.1N) to obtain pH ˜4. Finally sterile water was added to a final volume of 10 ml.
Test compound was administered at doses of 0.3 and 1.0 mg/kg via the oral route 30 min prior to testing.
PQ10 was administered at a dose of 1.0 mg/kg via the oral route 30 min prior to testing.
Certain pre-clinical tests allow the observation of relatively subtle cognitive deficits in the rat that resemble cognitive symptoms in subjects with schizophrenia. The cognitive deficits observed are seen in behaviours such as episodic memory, which can be measured by recognition tasks such as the novel object recognition (NOR) paradigm. A recognition memory task allows the comparison between presented stimuli and previously stored information. […] Object recognition in rats can be measured as the difference in time spent exploring the familiar and the new object. […]

Data set [3] is described as follows: Intrinsic dissolution rate (IDR) of miniaturized pellets. The class given is physicochemical. The settings on record: 37.0±0.5° C.; for Average IDR: 0.01M HCl at 100 rpm, miniaturized pellets; for intrinsic dissolution rate (IDR): pellets of 0.0754 cm^2. How it is done:
The intrinsic dissolution rate was measured using a DISS Profiler™ system consisting in both a mini-bath and UV fiber optic (5 mm pathlength) probes connected to a photodiode array (PDA) spectrophotometer (from pION Inc). Each pellet prepared were positioned in individual vessels. The intrinsic dissolution test was performed using 0.01 M HCl (20 mL) maintained at 37.0±0.5° C. with a stirring rate of 100 rpm. The concentration measurements were performed using UV detection at 326 nm. The intrinsic dissolution rate (IDR) was calculated by dividing the dissolution rate by the exposure area of pellet (0.0754 cm^2).

Data set [4] can be described thus: Adsorption-desorption (dynamic vapor sorption). The class given is physicochemical. The settings on record: for weight loss during the initial drying step: 60 min. under dry nitrogen at 25° C.; for hygroscopic behavior / physical form during the DVS test: DVS, 25° C., RH 0-95%.

Structures are written as SMILES. Converted amounts (≈) assume the structure as drawn. Read-outs that look alike come from different tables or passages of the source.

Regarding `COCCc1ccc(-c2c(C)nc3c(N4CCOCC4)ccnn23)cn1` [Compound 1, 3-[6-(2-methoxyethyl)-3-pyridinyl]-2-methyl-8-(4-morpholinyl)-imidazo[1,2-b]pyridazine], the solubility in data set [1] (aqueous buffer, thermodynamic from solid, borate-KCl—NaOH buffer pH 9, pH of solution 8.9, anhydrous free base) was 0.009 mg/mL (≈ 25.5 µM); in data set [1] (aqueous buffer, thermodynamic from solid, citrate-NaOH buffer pH 5, pH of solution 5.0, anhydrous free base) it was 0.012 mg/mL (≈ 34 µM); in data set [1] (aqueous buffer, thermodynamic from solid, citrate-NaOH—HCl buffer pH 2, pH of solution 2.9, anhydrous free base), 0.61 mg/mL (≈ 1730 µM); in data set [1] (aqueous buffer, thermodynamic from solid, phosphate buffer pH 7, pH of solution 7.0, anhydrous free base) it was 0.008 mg/mL (≈ 22.6 µM); in data set [1] (aqueous buffer, thermodynamic from solid, phosphate-NaOH buffer pH 12, pH of solution 11.9, anhydrous free base), 0.008 mg/mL (≈ 22.6 µM); in data set [1] (pH 2.5, simulated gastric fluid, thermodynamic from solid, 0.1N HCl, pH of solution 2.5, anhydrous free base) it was 2.5 mg/mL (≈ 7070 µM). Moreover, the solubility was 0.32 mg/mL (≈ 905 µM) in data set [1] (pH 3, simulated gastric fluid, thermodynamic from solid, 0.01N HCl, pH of solution 3.0, anhydrous free base); 0.009 mg/mL (≈ 25.5 µM) in data set [1] (pH 8.7, thermodynamic from solid, water, pH of solution 8.7, anhydrous free base); 0.008 mg/mL (≈ 22.6 µM) in data set [1] (pH 12.9, aqueous buffer, thermodynamic from solid, 0.1N NaOH, pH of solution 12.9, anhydrous free base). In addition, the “effects of acute treatment in the NOR task” value in data set [2] is given as “selective for the retention phase of the NOR task”. Moreover, in data set [3], the “Average IDR” value is recorded as 0.8170 mg · min^−1 · cm^−2. Moreover, in data set [3] (0.01 M HCl, 100 rpm), the “intrinsic dissolution rate (IDR)” value turned out to be 0.82 mg·min^−1·cm^−2. Further, the “weight loss during the initial drying step” value in data set [4] came to 0.06%. For the same molecule, the hygroscopic behavior entry in data set [4] is “no hygroscopic behavior”. For the same molecule, the “physical form during the DVS test” value in data set [4] was “remained the same physical form”.
In the case of `COc1cc2ncnc(N3CC[C@@H](Oc4cnc5ccccc5n4)C3)c2cc1OC` [PQ10], the “T2(A) exploration time of familiar object, retention trial” value in data set [2] (PCP + 1 mg/kg p.o., mean) was determined as 7.9 s. For the same molecule, in data set [2], the “effects of acute treatment in the NOR task” value is listed as “selective for the retention phase of the NOR task”.
With `COCCc1ccc(-c2c(C)nc3c(N4CCOCC4)ccnn23)cn1.O=P(O)(O)O` [Compound 1d, 3-[6-(2-methoxyethyl)-3-pyridinyl]-2-methyl-8-(4-morpholinyl)-imidazo[1,2-b]pyridazine phosphate], the solubility in data set [1] (aqueous buffer, thermodynamic from solid, borate-KCl—NaOH buffer pH 9, pH of solution 7.4, phosphate salt, read-out: Solubility (mg/mL) of compound 1d) was 0.1 mg/mL; in data set [1] (aqueous buffer, thermodynamic from solid, citrate-NaOH buffer pH 5, pH of solution 4.9, phosphate salt, read-out: Solubility (mg/mL) of compound 1d), 0.14 mg/mL; in data set [1] (aqueous buffer, thermodynamic from solid, citrate-NaOH—HCl buffer pH 2, pH of solution 2.5, phosphate salt, read-out: Solubility (mg/mL) of compound 1d), 20.2 mg/mL; in data set [1] (aqueous buffer, thermodynamic from solid, phosphate buffer pH 7, pH of solution 6.8, phosphate salt, read-out: Solubility (mg/mL) of compound 1d), 0.09 mg/mL; in data set [1] (aqueous buffer, thermodynamic from solid, phosphate-NaOH buffer pH 12, pH of solution 11.2, phosphate salt, read-out: Solubility (mg/mL) of compound 1d) it was 0.1 mg/mL; in data set [1] (pH 2.1, simulated gastric fluid, thermodynamic from solid, 0.1N HCl, pH of solution 2.1, phosphate salt, read-out: Solubility (mg/mL) of compound 1d), 46 mg/mL. For the same molecule, the solubility in data set [1] (pH 2.5, simulated gastric fluid, thermodynamic from solid, 0.01N HCl, pH of solution 2.5, phosphate salt, read-out: Solubility (mg/mL) of compound 1d) was 11.9 mg/mL; in data set [1] (pH 2.6, thermodynamic from solid, water, pH of solution 2.6, phosphate salt, read-out: Solubility (mg/mL) of compound 1d), 9.7 mg/mL; in data set [1] (pH 12.5, aqueous buffer, thermodynamic from solid, 0.1N NaOH, pH of solution 12.5, phosphate salt, read-out: Solubility (mg/mL) of compound 1d), 0.1 mg/mL. Besides, the “solubility compared to the anhydrous free base form (compound 1)” value in data set [1] (in vitro results) is “much higher solubility”. Also, the “Average IDR” value in data set [3] was found to be 2.5172 mg · min^−1 · cm^−2. Besides, the “time until pellets were totally dissolved” value in data set [3] (0.01 M HCl, 100 rpm) is given as at most 10 min. Moreover, in data set [3] (0.01 M HCl, 100 rpm), the “intrinsic dissolution rate (IDR)” value is 2.52 mg·min^−1·cm^−2. The “weight loss during the initial drying step” value in data set [4] came to 0.3%. In addition, the hygroscopic behavior entry in data set [4] is “no hygroscopic behavior”. Further, the “physical form during the DVS test” value in data set [4] was “remains crystalline”.
For `COCCc1ccc(-c2c(C)nc3c(N4CCOCC4)ccnn23)cn1.O` [Compound 1c, 3-[6-(2-methoxyethyl)-3-pyridinyl]-2-methyl-8-(4-morpholinyl)-imidazo[1,2-b]pyridazine monohydrate], the “Average IDR” value in data set [3] is given as 1.1011 mg · min^−1 · cm^−2. For the same molecule, the “intrinsic dissolution rate (IDR)” value in data set [3] (0.01 M HCl, 100 rpm) was found to be 1.10 mg·min^−1·cm^−2.

These data come from patent US8716282B2, “Imidazo[1,2-b]pyridazine derivatives and their use as PDE10 inhibitors” (Janssen Pharmaceutica NV, priority 2009, dated 2014).
